Source: US9550774B2, “Dihydropyrido pyrimidine compounds as autotaxin inhibitors” (Eli Lilly and Company, priority 2013, dated 2017)

What was measured:
[1] = target: recombinant human autotaxin (Homo sapiens (Human), UniProt Q13822); experiment: Inhibition of Autotaxin as Measured by Choline Release; assay type: biochemical; settings: LPC 16:0 30 μM substrate, 37° C. for 1 hour, 4 parameter curve fit
Experimental: The purpose of this assay is to detect autotaxin inhibition using a choline release assay.
Test compound (10 mM stocks in 100% DMSO) is serially diluted in 100% DMSO resulting in 10 concentrations of 100× inhibitor in half area 96 well plates (Corning 3992). Each of these 10 wells in 100% DMSO is diluted 1:33.33 in assay buffer in round bottom 96 well plates (Fisher 12565502) resulting in 3× concentrations in well containing 3% DMSO. The assay buffer is 50 mM Tris pH8.0, 5 mM KCl, 1 mM CaCl2, 1 mM MgCl2, 0.01% TRITON™ X-100 (Sigma T9284) and 0.01% fatty acid free bovine serum albumin (Sigma A8806). A 20 μl aliquot of each 3× test compound is then added to black flat bottom 96 well plates (Corning 3991) in singlicate. A 20 μl aliquot per well of 3× recombinant human autotaxin, (Echelon, E-4000) (full length human autotaxin with a C-terminal His tag transfected into 293E cells and purified via nickel chelate and size exclusion chromatography) is then added to every well except for the no enzyme control wells. A 20 μl aliquot per well of assay buffer is added to the no enzyme control wells. […] The resorufin on the plates is measured with a SpectraMax Gemini EM fluorometer at excitation-emission wavelengths of 530-590 nm using SoftMax Pro 4.8 software. IC50s are calculated using 4 parameter curve fits. […]

endogenous autotaxin = endogenous autotaxin (Homo sapiens (Human), UniProt Q13822); experiment: Autotaxin Mediated Inhibition of LPA in the Presence of Human Plasma; assay type: biochemical; settings: 90% pooled human plasma, 3 hours at 37° C., total LPA by mass spec
Source text: The following assay is intended to measure autoaxin mediated inhibition of LPA. This assay is a tool that can be used to identify autotaxin-mediated LPA inhibitor compounds when it is used to test compounds that have been identified as autotaxin inhibitors. LPA biosynthesis through autotaxin is believed to the source of LPA for LPA1 mediated neuropathic pain. Makoto Inoue, et. al, “Autotaxin, a synthetic enzyme of lysophosphatidic acid (LPA), mediates the induction of nerve-injured neuropathic pain”, Molecular Pain, 2008, 4:6. Inhibition of the autotaxin mediated LPA biosynthesis is supported by the results of this assay.
Units of plasma from healthy human female donors collected in sodium heparin (Lampire Biologicals) are pooled, aliquoted and stored at −80° C. […] A 400 μl aliquot of extraction buffer (50% methanol, 49.9% acetonitrile, 0.1% acetic acid) containing LPA internal standards (50 ng/ml D5 deuterium LPA 16:0 and 50 ng/ml D5 deuterium LPA 18:0) is added to each well and the total LPA in each sample is determined by mass spec analysis. Percent inhibition of LPA is calculated according to the following formula: 100−(3 hour plasma+test compound−0 hour plasma no test compound control)/(3 hour plasma no test compound control−0 hour plasma no test compound control)×100
[formula] IC50 values are calculated using 4 parameter curve fitting. […]

| IC50 [1] [nM] | IC50 (endogenous autotaxin) [nM] | Compound |
| --- | --- | --- |
| < 1.7 | 5.4 | O=C(c1cnn(Cc2c[nH]nn2)c1)N1CCc2nc(NC3Cc4ccccc4C3)ncc2C1 [Example 1, [2-(indan-2-ylamino)-7,8-dihydro-5H-pyrido[4,3-d]pyrimidin-6-yl]-[1-(1H-triazol-4-ylmethyl)pyrazol-4-yl]methanone] |
| < 1.7 | 7 | O=C(c1cc(-c2cnn[nH]2)ccn1)N1CCc2nc(NC3Cc4ccccc4C3)ncc2C1 [Example 9, [2-(indan-2-ylamino)-7,8-dihydro-5H-pyrido[4,3-d]pyrimidin-6-yl]-[4-(1H-triazol-5-yl)-2-pyridyl]methanone] |
